Key:
Assay in all cases: KINOMEscan
Type in all cases: binding
Conditions in all cases: 1 μM of compound 4; read-out: POC
CIT = CIT (Homo sapiens, UniProt O14578)
CDK4 = CDK4 (Homo sapiens, UniProt P11802)
MAST1 = MAST1 (Homo sapiens, UniProt Q9Y2H9)
MEK4 = MEK4 (Homo sapiens, UniProt P45985)
LIMK2 = LIMK2 (Homo sapiens, UniProt P53671)
PIK3C2B = PIK3C2B (Homo sapiens, UniProt O00750)
[1] = target: JAK3(JH1domain-catalytic) (Homo sapiens, UniProt P52333)
EGFR(L858R + T790M) = target: T1, EGFR(L858R + T790M) (Homo sapiens, UniProt P00533, L858R/T790M)
T1 construct: purchased Eurofins DiscoverX (KINOMEscan service)

PIK3CA(I800L) = PIK3CA(I800L) (Homo sapiens, UniProt P42336, I800L)
ADCK4 = ADCK4 (Homo sapiens, UniProt Q96D53)
PIKFYVE = PIKFYVE (Homo sapiens, UniProt Q9Y2I7)
PIK3CD = PIK3CD (Homo sapiens, UniProt O00329)
PKAC-beta = PKAC-beta (Homo sapiens, UniProt P22694)
AURKB = AURKB (Homo sapiens, UniProt Q96GD4)
Chain of AURKB (Q96GD4 whole entry): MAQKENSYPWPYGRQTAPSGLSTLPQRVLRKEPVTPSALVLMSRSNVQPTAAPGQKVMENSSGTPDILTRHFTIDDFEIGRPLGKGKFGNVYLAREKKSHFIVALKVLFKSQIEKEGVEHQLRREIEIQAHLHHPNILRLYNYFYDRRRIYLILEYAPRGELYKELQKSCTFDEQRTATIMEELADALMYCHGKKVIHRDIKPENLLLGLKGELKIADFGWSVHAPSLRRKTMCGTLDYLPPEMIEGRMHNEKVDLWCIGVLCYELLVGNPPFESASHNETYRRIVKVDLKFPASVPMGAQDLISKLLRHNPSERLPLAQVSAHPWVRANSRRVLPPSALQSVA

CDK7 = CDK7 (Homo sapiens, UniProt P50613)
TRKC = target: T2, TRKC (Homo sapiens, UniProt Q16288)
T2 construct: purchased Eurofins DiscoverX Corporation

PIK3CA(C420R) = PIK3CA(C420R) (Homo sapiens, UniProt P42336, C420R)
SRPK2 = target: T3, SRPK2 (Homo sapiens, UniProt P78362)
T3 construct: purchased Eurofins DiscoverX (KINOMEscan service)
T3 sequence (P78362 whole entry): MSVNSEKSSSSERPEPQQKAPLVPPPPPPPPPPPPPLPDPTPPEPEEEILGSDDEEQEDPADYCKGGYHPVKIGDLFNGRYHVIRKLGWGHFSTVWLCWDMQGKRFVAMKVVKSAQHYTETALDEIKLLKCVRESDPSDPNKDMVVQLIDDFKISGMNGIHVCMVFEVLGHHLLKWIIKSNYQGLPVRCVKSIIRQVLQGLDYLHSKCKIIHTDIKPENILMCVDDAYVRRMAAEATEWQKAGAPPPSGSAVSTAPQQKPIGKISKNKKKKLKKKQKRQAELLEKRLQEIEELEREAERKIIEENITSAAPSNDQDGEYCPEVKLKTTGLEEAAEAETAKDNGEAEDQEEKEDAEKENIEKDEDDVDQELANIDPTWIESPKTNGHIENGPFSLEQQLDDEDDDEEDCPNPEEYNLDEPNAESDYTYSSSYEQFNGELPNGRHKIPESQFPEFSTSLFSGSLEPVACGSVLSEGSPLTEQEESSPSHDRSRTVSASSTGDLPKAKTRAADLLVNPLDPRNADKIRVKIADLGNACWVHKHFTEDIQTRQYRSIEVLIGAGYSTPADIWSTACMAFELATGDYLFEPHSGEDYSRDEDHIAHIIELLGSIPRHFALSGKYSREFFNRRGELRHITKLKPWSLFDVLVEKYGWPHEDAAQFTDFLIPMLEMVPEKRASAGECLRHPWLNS

MET(M1250T) = MET(M1250T) (Homo sapiens, UniProt P08581, M1250T)
PAK1 = target: T4, PAK1 (Homo sapiens, UniProt Q13153)
T4 construct: purchased Eurofins DiscoverX Corporation (KINOMEscan)

PYK2 = target: T5, PYK2 (Homo sapiens, UniProt Q14289)
T5 construct: purchased Eurofins DiscoverX Corporation (KINOMEscan screening service)

PRKD2 = PRKD2 (Homo sapiens, UniProt Q9BZL6)
AMPK-alpha1 = AMPK-alpha1 (Homo sapiens, UniProt Q13131)
RIOK1 = target: T6, RIOK1 (Homo sapiens, UniProt Q9BRS2)
T6 construct: purchased Eurofins DiscoverX Corporation (KINOMEscan screening service)

ERBB3 = target: T7, ERBB3 (Homo sapiens, UniProt P21860)
T7 construct: purchased Eurofins DiscoverX Corporation
T7 sequence (P21860 20-1342): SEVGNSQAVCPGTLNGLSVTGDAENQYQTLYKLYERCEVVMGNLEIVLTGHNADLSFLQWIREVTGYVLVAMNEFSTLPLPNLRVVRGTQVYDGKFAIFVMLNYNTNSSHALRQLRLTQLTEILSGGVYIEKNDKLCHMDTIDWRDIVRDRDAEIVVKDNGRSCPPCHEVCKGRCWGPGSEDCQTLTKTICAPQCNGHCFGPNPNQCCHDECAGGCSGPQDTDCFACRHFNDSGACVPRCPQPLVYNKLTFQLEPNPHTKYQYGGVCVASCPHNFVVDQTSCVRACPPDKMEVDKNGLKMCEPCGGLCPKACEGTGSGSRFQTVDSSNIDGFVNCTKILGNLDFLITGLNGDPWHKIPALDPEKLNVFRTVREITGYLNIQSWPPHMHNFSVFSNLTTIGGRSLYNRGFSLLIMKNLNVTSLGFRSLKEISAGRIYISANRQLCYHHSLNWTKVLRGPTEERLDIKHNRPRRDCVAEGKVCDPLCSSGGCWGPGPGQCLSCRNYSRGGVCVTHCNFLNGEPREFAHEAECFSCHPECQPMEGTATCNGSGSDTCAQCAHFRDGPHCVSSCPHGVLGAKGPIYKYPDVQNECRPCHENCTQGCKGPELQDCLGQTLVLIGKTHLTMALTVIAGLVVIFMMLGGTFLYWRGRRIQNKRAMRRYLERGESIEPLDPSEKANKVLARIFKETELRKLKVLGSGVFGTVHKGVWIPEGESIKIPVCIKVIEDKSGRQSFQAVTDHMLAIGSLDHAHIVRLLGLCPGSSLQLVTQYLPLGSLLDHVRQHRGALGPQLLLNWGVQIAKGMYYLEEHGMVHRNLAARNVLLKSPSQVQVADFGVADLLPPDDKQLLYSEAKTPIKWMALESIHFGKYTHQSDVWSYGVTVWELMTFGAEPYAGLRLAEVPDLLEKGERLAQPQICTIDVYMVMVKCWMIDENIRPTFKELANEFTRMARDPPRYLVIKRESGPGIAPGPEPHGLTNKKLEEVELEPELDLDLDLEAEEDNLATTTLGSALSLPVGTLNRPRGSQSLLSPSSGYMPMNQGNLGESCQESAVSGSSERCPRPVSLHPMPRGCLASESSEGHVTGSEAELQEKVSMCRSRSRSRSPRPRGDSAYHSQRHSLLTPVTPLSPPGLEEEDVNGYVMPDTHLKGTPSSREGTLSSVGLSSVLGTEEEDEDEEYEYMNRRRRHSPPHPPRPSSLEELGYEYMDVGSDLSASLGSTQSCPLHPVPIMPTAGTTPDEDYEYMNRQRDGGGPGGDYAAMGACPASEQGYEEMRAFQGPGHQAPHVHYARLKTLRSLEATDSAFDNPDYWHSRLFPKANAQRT

PIK3CG = PIK3CG (Homo sapiens, UniProt P48736)
NEK1 = NEK1 (Homo sapiens, UniProt Q96PY6)
FGFR4 = target: T8, FGFR4 (Homo sapiens, UniProt P22455)
T8 construct: purchased Eurofins DiscoverX Corporation

PLK4 = PLK4 (Homo sapiens, UniProt O00444)
EGFR(L861Q) = target: T9, EGFR(L861Q) (Homo sapiens, UniProt P00533, L861Q)
T9 construct: purchased Eurofins DiscoverX (KINOMEscan service)

TSSK3 = target: T10, TSSK3 (Homo sapiens, UniProt Q96PN8)
T10 construct: purchased Eurofins DiscoverX Corporation

TYRO3 = target: T11, TYRO3 (Homo sapiens, UniProt Q06418)
T11 construct: purchased Eurofins DiscoverX

TLK2 = target: T12, TLK2 (Homo sapiens, UniProt Q86UE8)
T12 construct: purchased Eurofins DiscoverX Corporation

[2] = target: T13, ABL1(H396P)-phosphorylated (Homo sapiens, UniProt P00519, H396P)
T13 construct: purchased Eurofins DiscoverX Corporation

AURKC = AURKC (Homo sapiens, UniProt Q9UQB9)
ZAP70 = target: T14, ZAP70 (Homo sapiens, UniProt P43403)
T14 construct: purchased Eurofins DiscoverX

RIPK1 = target: T15, RIPK1 (Homo sapiens, UniProt Q13546)
T15 construct: purchased Eurofins DiscoverX Corporation (KINOMEscan screening service)

LATS1 = LATS1 (Homo sapiens, UniProt O95835)
KIT(A829P) = KIT(A829P) (Homo sapiens, UniProt P10721, A829P)

Chain of CIT (O14578 whole entry): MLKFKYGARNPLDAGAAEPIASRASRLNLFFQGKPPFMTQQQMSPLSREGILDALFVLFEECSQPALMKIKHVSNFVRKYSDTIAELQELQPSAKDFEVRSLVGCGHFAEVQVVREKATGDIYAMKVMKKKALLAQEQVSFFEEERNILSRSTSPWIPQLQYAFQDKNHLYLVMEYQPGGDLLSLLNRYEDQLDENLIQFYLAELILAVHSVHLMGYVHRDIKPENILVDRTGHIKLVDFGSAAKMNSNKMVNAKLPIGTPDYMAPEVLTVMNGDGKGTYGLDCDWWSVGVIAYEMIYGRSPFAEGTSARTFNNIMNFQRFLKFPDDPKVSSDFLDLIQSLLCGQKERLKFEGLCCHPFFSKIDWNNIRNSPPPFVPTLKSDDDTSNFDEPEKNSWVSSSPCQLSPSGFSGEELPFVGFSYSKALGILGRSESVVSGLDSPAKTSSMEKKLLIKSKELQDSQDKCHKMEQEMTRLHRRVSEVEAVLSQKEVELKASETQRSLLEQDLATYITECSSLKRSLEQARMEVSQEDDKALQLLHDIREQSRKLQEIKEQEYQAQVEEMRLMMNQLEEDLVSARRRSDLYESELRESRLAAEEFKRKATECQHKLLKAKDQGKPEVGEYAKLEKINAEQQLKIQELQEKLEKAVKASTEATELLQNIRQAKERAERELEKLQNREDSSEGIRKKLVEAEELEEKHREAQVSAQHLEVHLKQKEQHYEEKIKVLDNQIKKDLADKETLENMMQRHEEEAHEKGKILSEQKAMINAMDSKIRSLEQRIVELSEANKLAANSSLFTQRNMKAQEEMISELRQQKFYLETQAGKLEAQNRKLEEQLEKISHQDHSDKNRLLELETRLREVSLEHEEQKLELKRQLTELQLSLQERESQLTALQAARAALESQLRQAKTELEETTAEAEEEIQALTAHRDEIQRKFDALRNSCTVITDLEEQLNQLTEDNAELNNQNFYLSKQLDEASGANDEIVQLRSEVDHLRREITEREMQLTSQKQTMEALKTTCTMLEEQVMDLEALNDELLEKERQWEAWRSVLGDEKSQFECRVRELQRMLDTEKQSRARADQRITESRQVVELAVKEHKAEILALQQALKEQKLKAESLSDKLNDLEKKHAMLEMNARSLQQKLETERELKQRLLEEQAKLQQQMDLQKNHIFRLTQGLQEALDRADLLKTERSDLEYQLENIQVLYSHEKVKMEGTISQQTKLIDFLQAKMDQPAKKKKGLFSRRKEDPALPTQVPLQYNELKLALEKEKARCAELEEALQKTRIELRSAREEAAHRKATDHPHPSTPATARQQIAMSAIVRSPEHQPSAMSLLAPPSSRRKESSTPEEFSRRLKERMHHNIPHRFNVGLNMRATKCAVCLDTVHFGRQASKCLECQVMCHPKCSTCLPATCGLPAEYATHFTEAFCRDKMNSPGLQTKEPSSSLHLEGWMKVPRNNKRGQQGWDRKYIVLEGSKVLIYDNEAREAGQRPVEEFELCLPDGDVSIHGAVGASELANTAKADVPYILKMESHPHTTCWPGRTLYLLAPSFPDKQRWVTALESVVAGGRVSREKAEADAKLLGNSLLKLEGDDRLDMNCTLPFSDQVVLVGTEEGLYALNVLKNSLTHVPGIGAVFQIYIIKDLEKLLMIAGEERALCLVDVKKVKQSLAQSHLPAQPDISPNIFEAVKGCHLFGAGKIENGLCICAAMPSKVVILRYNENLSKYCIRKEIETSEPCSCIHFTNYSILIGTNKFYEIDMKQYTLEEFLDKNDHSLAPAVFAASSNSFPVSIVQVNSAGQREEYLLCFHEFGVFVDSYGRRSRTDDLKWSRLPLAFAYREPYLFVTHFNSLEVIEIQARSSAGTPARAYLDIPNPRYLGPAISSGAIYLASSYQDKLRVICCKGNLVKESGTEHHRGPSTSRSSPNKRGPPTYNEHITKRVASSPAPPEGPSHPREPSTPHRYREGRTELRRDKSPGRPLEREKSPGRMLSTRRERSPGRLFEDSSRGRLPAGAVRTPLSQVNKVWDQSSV
Chain of LIMK2 (P53671 whole entry): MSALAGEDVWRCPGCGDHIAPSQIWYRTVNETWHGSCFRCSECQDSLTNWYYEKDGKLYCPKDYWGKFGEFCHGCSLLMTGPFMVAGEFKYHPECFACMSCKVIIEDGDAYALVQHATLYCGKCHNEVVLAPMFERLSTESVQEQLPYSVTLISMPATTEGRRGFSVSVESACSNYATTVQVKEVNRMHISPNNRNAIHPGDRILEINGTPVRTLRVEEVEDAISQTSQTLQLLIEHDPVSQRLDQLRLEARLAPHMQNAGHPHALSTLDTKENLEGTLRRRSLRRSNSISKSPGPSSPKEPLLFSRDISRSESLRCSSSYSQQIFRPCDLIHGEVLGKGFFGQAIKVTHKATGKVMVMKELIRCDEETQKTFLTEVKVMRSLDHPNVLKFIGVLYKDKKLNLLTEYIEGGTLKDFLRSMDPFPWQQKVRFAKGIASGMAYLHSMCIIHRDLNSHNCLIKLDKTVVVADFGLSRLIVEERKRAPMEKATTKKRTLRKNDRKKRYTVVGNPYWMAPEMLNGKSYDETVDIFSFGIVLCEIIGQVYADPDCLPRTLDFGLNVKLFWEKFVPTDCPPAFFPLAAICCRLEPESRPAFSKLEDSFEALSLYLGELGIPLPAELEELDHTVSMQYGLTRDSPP

Molecule `C=CC(=O)Nc1ccc(OC)c(Nc2cc(-c3[nH]c(CC)nc3-c3cccc(NC(=O)c4cccc5c4NC(=O)c4ccccc4N5)c3)ccn2)c1` [Compound 4, N-(3-(5-(2-((5-Acrylamido-2-methoxyphenyl)amino)pyridin-4-yl)-2-ethyl-1H-imidazol-4-yl)phenyl)-11-oxo-10,11-dihydro-5H-dibenzo[b,e][1,4]diazepine-9-carboxamide] has a remaining binding at 1 µM (CIT) of 6.3%, a remaining binding at 1 µM (CDK4) of 100% and a remaining binding at 1 µM (MAST1) of 100%. The remaining binding at 1 µM (MEK4) was 100%, the remaining binding at 1 µM (LIMK2) was 93% and the remaining binding at 1 µM (PIK3C2B) was 74%. It also gave a remaining binding at 1 µM [1] of 100%, a remaining binding at 1 µM (EGFR(L858R + T790M)) of 8.3% and a remaining binding at 1 µM (PIK3CA(I800L)) of 100%. For the same molecule, the remaining binding at 1 µM (ADCK4) was 85%, the remaining binding at 1 µM (PIKFYVE) was 94% and the remaining binding at 1 µM (PIK3CD) was 71%. It also gave a remaining binding at 1 µM (PKAC-beta) of 98%, a remaining binding at 1 µM (AURKB) of 100% and a remaining binding at 1 µM (CDK7) of 49%. For the same molecule, the remaining binding at 1 µM (TRKC) was 87%, the remaining binding at 1 µM (PIK3CA(C420R)) was 66% and the remaining binding at 1 µM (SRPK2) was 100%. The remaining binding at 1 µM (MET(M1250T)) was 89%, the remaining binding at 1 µM (PAK1) was 100% and the remaining binding at 1 µM (PYK2) was 100%. It also gave a remaining binding at 1 µM (PRKD2) of 62%, a remaining binding at 1 µM (AMPK-alpha1) of 81% and a remaining binding at 1 µM (RIOK1) of 100%. For the same molecule, the remaining binding at 1 µM (ERBB3) was 84%, the remaining binding at 1 µM (PIK3CG) was 65% and the remaining binding at 1 µM (NEK1) was 90%. For the same molecule, the remaining binding at 1 µM (FGFR4) was 100%, the remaining binding at 1 µM (PLK4) was 71% and the remaining binding at 1 µM (EGFR(L861Q)) was 2.7%. The remaining binding at 1 µM (TSSK3) was 100%, the remaining binding at 1 µM (TYRO3) was 32% and the remaining binding at 1 µM (TLK2) was 87%. For the same molecule, the remaining binding at 1 µM [2] was 74%, the remaining binding at 1 µM (AURKC) was 100% and the remaining binding at 1 µM (ZAP70) was 97%. The remaining binding at 1 µM (RIPK1) was 100%, the remaining binding at 1 µM (LATS1) was 100% and the remaining binding at 1 µM (KIT(A829P)) was 56%.

Source: patent US20260224588A1, “BENZODIAZEPINONE-DERIVED INHIBITORS OF EGFR AND HER2” (The Research Foundation for the State University of New York, priority 2023, published 2026)
